# Reference: patent EP1635833B1 (priority 2003, dated 2004)
# Where two headings read alike, the source gives them in different places.
# How the values were obtained:
# [1] = tested on: ricinus oil-induced diarrhea; conditions: in vivo
# [2] = tested on: acetone-induced lifting behaviour; experiment: Tolerance in a chronic neuropathic pain model (CCI gerbils, acetone spray test); format: in vivo; conditions: 11 days
# [3] = tested on: opioid-induced PCO2 increases; conditions: guinea pig, in vivo
# charcoal propulsion [4] = conditions: in vivo
# [5] = tested on: opioid-induced PCO2 increases; conditions: in vivo
# [6] = tested on: opioid-induced PCO2 increases; conditions: rat, in vivo
# [7] = tested on: ricinus oil-induced diarrhea; conditions: rat, in vivo
# [8] = tested on: ricinus oil-induced diarrhea; experiment: whole plant or invertebrate; conditions: in Meriones unguiculatus, sc, 8 h, read-out: ED50 to postpone the ricinus oil-induced diarrhea
# [9] = tested on: ricinus oil-induced diarrhea; experiment: whole plant or invertebrate; conditions: in Rattus norvegicus, sc, 4 h, read-out: ED50 to postpone the ricinus oil-induced diarrhea
# charcoal propulsion [10] = experiment: animal or person; format: in vivo, rats; conditions: Rattus norvegicus, sc, read-out: ED50 for an inhibition of charcoal propulsion (<60 %)
structure (smiles),measurement,setting,value
"Cc1cccc(C)c1NC(=O)CN1CCN(C2CCN(C(=O)c3cc(C(F)(F)F)cc(C(F)(F)F)c3)C(Cc3ccccc3)C2)CC1 (single isomer, unassigned; (+)) [Compound 95, (+)-(B)-trans-4-[1-[3,5-bis(trifluoromethyl)benzoyl]-2-(phenylmethyl)-4-piperidinyl]-N-(2,6-dimethylphenyl)-1-piperazine acetamide, (L)-malic acid (1:1)]",effect of adding Compound 95 on the ED50s of the opioids,[1],did not alter
same,effects on constipation,[1],minimal effects
same,acetone-induced lifting behaviour,[2]; 2.5 mg/kg Compound 95 i.p. twice daily alone,limited activity
same,"acetone-induced lifting behaviour, activity over time",[2]; 2.5 mg/kg Compound 95 with 2.5 mg/kg morphine i.p. twice daily,the activity remained present over the entire testing period
same,"reduction of the frequency of retches, vomiting and periods of emesis",morphine-induced emesis; at 0.4 mg/kg morphine (submaximal dose),non-significant tendency
same,doses with activity on periods of emesis,morphine-induced emesis; at 0.8 mg/kg morphine,≥ 2.5 mg/kg
same,number (frequency) of vomits,"morphine-induced emesis; at 0.8 mg/kg morphine, 10 mg/kg Compound 95 i.p.",diminished significantly
same,number of retches,"morphine-induced emesis; at 0.8 mg/kg morphine, doses of 10 and 40 mg/kg i.p. Compound 95",significantly reduced
same,PCO2 values,[3],did not affect PCO2 values
same,opioid-induced PCO2 levels,[3],reductions in the opioid-induced PCO2 levels
same,effect of adding Compound 95 on the outcome of the opioids,charcoal propulsion [4],did not affect the outcome of the opioids
same,inhibition of the charcoal propulsion,charcoal propulsion [4],inactive
same,PCO2 values,[5],no effects were observed
same,opioid-induced PCO2 levels,[5],significant decreases
same,number of animals reaching high (>50 mm Hg) levels of PCO2,[6],reduced
same,PCO2 levels,"[6]; sc, 40 mg/kg",did not affect the PCO2 levels
same,effect of adding Compound 95 on the ED50s of the opioids,[7],did not alter
same,effects on constipation,[7],minimal effects
"COc1ccc2c3c1O[C@H]1[C@@H](O)C=C[C@H]4[C@@H](C2)N(C)CC[C@@]341 [Codeine, codeine]",ED50,[8],1.67 mg/kg
same,inhibition of the ricinus oil -induced diarrhea,[1],dose-dependent inhibition
"CN1CC[C@]23c4c5ccc(O)c4O[C@H]2[C@@H](O)C=C[C@H]3[C@H]1C5 [Morphine, morphine]",inhibition of the ricinus oil -induced diarrhea,[1],dose-dependent inhibition
same,ED50,[9],2.19 mg/kg
same,doses causing central side-effects,"morphine-induced emesis; in vivo, ip",> 0.8 mg/kg
same,PCO2,[3]; sc,increase in PCO2
same,ED50,charcoal propulsion [10],1.66 mg/kg
same,levels of Pco2,[6],increased levels of Pco2
same,inhibition of the ricinus oil -induced diarrhea,[7],dose-dependent inhibition
"COc1ccc2c3c1O[C@H]1C(=O)CC[C@@]4(O)[C@@H](C2)N(C)CC[C@]314 [Oxycodone, oxycodone]",inhibition of the ricinus oil -induced diarrhea,[1],dose-dependent inhibition
